Test: Parallel artificial membrane permeability assay (PAMPA) for blood-brain barrier permeation, PSR4p analyzer
Conditions: for Papp at 18 h, 25 µg/mL: pig, PAMPA, pH 7.4; for Pe (linear velocity of permeation): pH 7.4 buffer, 18 h, ambient temperature, literature compounds, averaged
Excerpt: In actual practice, a solution of known concentration of a compound or mixture of compounds in a buffer solution is separated from a buffer solution containing 0% concentration of said compound or mixture of compounds by a porous filter membrane impregnated with a mixture of brain polar lipid extract and dodecane in such a way that the surface of each buffer solution is in contact with opposite sides of said impregnated membrane. After a measured period of time, the concentration of said compound or mixture of compounds is determined for each buffer solution and the rate of diffusion is calculated.
In one embodiment of the invention, a 96-well plate filled with solutions of a known concentration of test sample in a buffer solution (donor) may be covered with a 96-well filter plate wherein the porous filter membrane is impregnated with a mixture of brain polar lipid extract and dodecane and the wells are filled with a buffer solution containing 0% concentration of test sample (acceptor) such that the surface of each buffer solution is in contact with opposite sides of said impregnated filter membrane; after a measured period of time, the donor plate and acceptor plate are separated, the concentration of sample in each buffer solution is determined and the rate of permeation is calculated.
In another embodiment of the invention, a high through-put permeability instrument such as the PSR4p instrument manufactured by pION Inc., Woburn, Mass. may be utilized. In this embodiment, a parallel artificial membrane assay (PAMPA) technique is employed using as artificial membrane a porous filter membrane impregnated with a mixture of brain polar lipid extract and dodecane.
A 100 μL volume of each stock solution is placed into one well of a 96-well plate, and the well plate is placed in a PSR4p permeability analyzer manufactured by pION, Inc., Woburn, Mass. A 10 μL volume of stock solution is robotically added to a deep 96-well plate containing 2.0 mL of pH 7.4 buffer solution. The resultant mixture is mechanically stirred to form the donor solution. A 200 μL volume of each donor solution is placed robotically into 3 wells of a 96-well plate to afford the donor plate. A vial containing 20 mg of porcine polar brain lipid extract manufactured by Avanti Polar Lipids, Inc., Alabaster, Ala., dissolved in 1 mL of dodecane is placed in the reservoir of the PSR4p instrument. A 4 μL volume of this brain lipid solution is placed on the filter surface of each well of a 96-well microtiter filter well plate manufactured by Millipore Corp., Bedford, Mass., wherein the filter is a porous (0.45 μm) polyvinylidenefluoride material approximately 104 μm in thickness. The microtiter plate is then manually placed on an orbital shaker for 1 minute to yield a 96-well microtiter plate having a filter membrane permeated with a 2.0% wt/vol solution of porcine polar brain lipid extract in dodecane. A 200 μL volume of pH 7.4 buffer is robotically inserted into the wells of the thus-prepared microtiter 96-well filter plate to give a receptor plate, this receptor plate is placed on the donor plate to form a sandwich and allowed to stand at ambient temperature for 18 h.
A plate washer manufactured by Tecan, Hombrechin-tikon, Switzerland is then used to prepare a UV transparent 96-well plate (UV plate). The receptor plate is removed from the sandwich, a 150 μL volume of the receptor solution is robotically placed in the UV plate, and the UV absorption at 190–500 nm of each receptor well is recorded. The UV plate is then replaced in the plate washer, washed again and a 150 μL volume of the donor solution is robotically placed in the UV plate and the UV absorption at 190–500 nm of each donor well is recorded.

| Compound | Papp at 18 h, 25 µg/mL | Pe (linear velocity of permeation) |
| --- | --- | --- |
| CCCC(C)C1(CC)C(=O)NC(=S)NC1=O (stereo not shown) [Thiopental] | > 4 ×10⁻⁶ cm/s |  |
| CN1C(=O)CC(=O)N(c2ccccc2)c2cc(Cl)ccc21 [Clobazam] | > 4 ×10⁻⁶ cm/s | 16.85 10^−6 cm/s |
| COc1ccc(CCN2CCC(Nc3nc4ccccc4n3Cc3ccc(F)cc3)CC2)cc1 [Astemizole] | > 4 ×10⁻⁶ cm/s | 10.66 10^−6 cm/s |
| CN(C)CCCN1c2ccccc2Sc2ccccc21 [Promazine] | > 4 ×10⁻⁶ cm/s | 8.84 10^−6 cm/s |
| CN1C(C(=O)Nc2ccccn2)=C(O)c2ccccc2S1(=O)=O [Piroxicam] | < 2 ×10⁻⁶ cm/s | 2.53 10^−6 cm/s |
| CN(C)C(=O)C(CCN1CCC(O)(c2ccc(Cl)cc2)CC1)(c1ccccc1)c1ccccc1 [Loperamide] | < 2 ×10⁻⁶ cm/s | 0.00 10^−6 cm/s |
| Cc1cc(NC(=O)C2=C(O)c3ccccc3S(=O)(=O)N2C)no1 [Isoxicam] | < 2 ×10⁻⁶ cm/s | 0.25 10^−6 cm/s |
| CC(C)(C)c1ccc(C(O)CCCN2CCC(C(O)(c3ccccc3)c3ccccc3)CC2)cc1 (stereo not shown) [Terfenadine] | < 2 ×10⁻⁶ cm/s | 0.00 10^−6 cm/s |
| NCCc1ccc(O)c(O)c1 [Dopamine] | < 2 ×10⁻⁶ cm/s | 0.16 10^−6 cm/s |
| C[C@]12CCC(=O)C=C1CC[C@@H]1[C@@H]2[C@@H](O)C[C@]2(C=O)[C@@H](C(=O)CO)CC[C@@H]12 [Aldosterone] | < 2 ×10⁻⁶ cm/s | 1.19 10^−6 cm/s |
| CN1C(C(=O)Nc2ccccn2)=C(O)c2sccc2S1(=O)=O [Tenoxicam] | < 2 ×10⁻⁶ cm/s | 0.14 10^−6 cm/s |
| CN(C)CCCN1c2ccccc2Sc2ccc(Cl)cc21 [Chlorpromazine] | > 4 ×10⁻⁶ cm/s | 6.36 10^−6 cm/s |
| Cc1nnc2n1-c1ccc(Cl)cc1C(c1ccccc1)=NC2 [Alprazolam] | > 4 ×10⁻⁶ cm/s | 5.44 10^−6 cm/s |

Source: US7060428B2, “Methods and compositions useful for the prediction of blood-brain barrier permeation” (Wyeth, priority 2001, dated 2006)
